Test results from patent US20200237742A1, “Serdexmethylphenidate Conjugates, Compositions And Methods Of Use Thereof” (priority 2018, published 2020).

Tests used:
[1] = tested on: healthy, nondependent, recreational stimulant users; test: Oral abuse potential study, VAS pharmacodynamic assessments; settings: for Mean Difference Any Effects Emax, B vs E / Mean Difference Bad Effects Emax, B vs E / Mean Difference Feeling Alert/Drowsy Emax, B vs E / Mean Difference Feeling High Emax, B vs E / Mean Difference Good Effects Emax, B vs E / Mean Difference Overall Drug Liking Emax, B vs E / Mean Difference Take Drug Again Emax, B vs E / Mean Difference Drug Liking Emax, B vs E: SDX Cl 240 mg vs placebo
[2] = Intravenous pharmacokinetic study (KP415.A03) in recreational stimulant users; settings: human, in vivo, iv
Protocol: A study was conducted in humans to assess the intravenous abuse potential of serdexmethylphenidate relative to unconjugated d-methylphenidate and placebo in recreational stimulant abusers. This was a Phase 1, randomized, double-blind study in which serdexmethylphenidate and d-methylphenidate were administered intravenously in recreational stimulant users with a history of non-oral abuse. In Part A of the study, subjects (Cohort 1) participated in a dose-escalation phase to determine the optimal dose of intravenous d-methylphenidate based on tolerability and abuse-related pharmacodynamic assessments. […] The doses of serdexmethylphenidate and d-methylphenidate are equivalent with respect to molar amount of d-methylphenidate. FDA-recommended abuse potential measures and blood samples were collected at different times after dosing. Safety assessments were performed throughout the study.

[3] = Focalin XR 80 mg vs SDX Cl 120 mg
[4] = Focalin XR 80 mg vs SDX Cl 240 mg
[5] = SDX Cl 120 mg vs placebo, listed as SDX chloride
[6] = phentermine HCl 60 mg vs SDX Cl 120 mg
[7] = phentermine HCl 60 mg vs SDX Cl 240 mg
[8] = phentermine HCl 60 mg vs SDX Cl 240 mg, listed as SDX chloride

Structure (SMILES): COC(=O)[C@H](c1ccccc1)[C@H]1CCCCN1C(=O)OC[n+]1cccc(C(=O)N[C@@H](CO)C(=O)O)c1.[Cl-] [serdexmethylphenidate chloride]
- Mean Difference Any Effects Emax, C vs A [1, 3]: statistically lower
- Mean Difference Bad Effects Emax, C vs A [1, 3]: statistically lower
- Mean Difference Feeling Alert/Drowsy Emax, C vs A [1, 3]: statistically lower
- Mean Difference Feeling High Emax, C vs A [1, 3]: statistically lower
- Mean Difference Good Effects Emax, C vs A [1, 3]: statistically lower
- Mean Difference Overall Drug Liking Emax, C vs A [1, 3]: about 4.5
- Mean Difference Take Drug Again Emax, C vs A [1, 3]: not statistically significant
- Mean Difference Overall Drug Liking Emax, C vs A ([1]; Focalin XR 80 mg vs SDX Cl 120 mg, listed as SDX chloride): not statistically significant
- Mean Difference Drug Liking Emax, C vs A ([1]; Focalin XR 80 mg vs SDX Cl 120 mg, margin 10): at least 18.2
- Mean Difference Drug Liking Emax, C vs A ([1]; Focalin XR 80 mg vs SDX Cl 120 mg, margin 10, listed as SDX chloride): statistically significantly lower
- Mean Difference Any Effects Emax, C vs B [1, 4]: statistically lower
- Mean Difference Bad Effects Emax, C vs B [1, 4]: statistically lower
- Mean Difference Feeling Alert/Drowsy Emax, C vs B [1, 4]: statistically lower
- Mean Difference Feeling High Emax, C vs B [1, 4]: statistically lower
- Mean Difference Good Effects Emax, C vs B [1, 4]: statistically lower
- Mean Difference Overall Drug Liking Emax, C vs B [1, 4]: about 5.0
- Mean Difference Take Drug Again Emax, C vs B [1, 4]: not statistically significant
- Mean Difference Overall Drug Liking Emax, C vs B ([1]; Focalin XR 80 mg vs SDX Cl 240 mg, listed as SDX chloride): not statistically significant
- Mean Difference Drug Liking Emax, C vs B ([1]; Focalin XR 80 mg vs SDX Cl 240 mg, margin 10): at least 16.7
- Mean Difference Drug Liking Emax, C vs B ([1]; Focalin XR 80 mg vs SDX Cl 240 mg, margin 10, listed as SDX chloride): statistically significantly lower
- Mean Difference Any Effects Emax, A vs E ([1]; SDX Cl 120 mg vs placebo): 11.0
- Mean Difference Bad Effects Emax, A vs E ([1]; SDX Cl 120 mg vs placebo): 1.3
- Mean Difference Feeling Alert/Drowsy Emax, A vs E ([1]; SDX Cl 120 mg vs placebo): 7.7
- Mean Difference Feeling High Emax, A vs E ([1]; SDX Cl 120 mg vs placebo): 10.4
- Mean Difference Good Effects Emax, A vs E ([1]; SDX Cl 120 mg vs placebo): 12.1
- Mean Difference Overall Drug Liking Emax, A vs E ([1]; SDX Cl 120 mg vs placebo): 3.8
- Mean Difference Take Drug Again Emax, A vs E ([1]; SDX Cl 120 mg vs placebo): 2.2
- Mean Difference Bad Effects Emax, A vs E [1, 5]: not statistically different
- Mean Difference Feeling Alert/Drowsy Emax, A vs E [1, 5]: statistically higher
- Mean Difference Good Effects Emax, A vs E [1, 5]: statistically higher
- Mean Difference Overall Drug Liking Emax, A vs E [1, 5]: not statistically different
- Mean Difference Take Drug Again Emax, A vs E [1, 5]: not statistically different
- Mean Difference Drug Liking Emax, A vs E ([1]; SDX Cl 120 mg vs placebo, margin 11): 6.8
- Mean Difference Drug Liking Emax, A vs E ([1]; SDX Cl 120 mg vs placebo, margin 11, listed as SDX chloride): not statistically non-inferior
- Drug Liking Emax, Median ([1]; SDX Cl 120 mg, bipolar VAS): 53.0
- Feeling Alert/Drowsy Emax, Median ([1]; SDX Cl 120 mg, bipolar VAS): 54.0
- Overall Drug Liking Emax, Median ([1]; SDX Cl 120 mg, bipolar VAS): 50.0
- Take Drug Again Emax, Median ([1]; SDX Cl 120 mg, bipolar VAS): 50.0
- Any Effects Emax, Median ([1]; SDX Cl 120 mg, unipolar VAS): 14.0
- Bad Effects Emax, Median ([1]; SDX Cl 120 mg, unipolar VAS): 0.0
- Feeling High Emax, Median ([1]; SDX Cl 120 mg, unipolar VAS): 7.0
- Good Effects Emax, Mean ([1]; SDX Cl 120 mg, unipolar VAS): 27.0
- Good Effects Emax, Median ([1]; SDX Cl 120 mg, unipolar VAS): 10.0
- Mean Difference Any Effects Emax, B vs E [1]: 20.5
- Mean Difference Bad Effects Emax, B vs E [1]: 8.6
- Mean Difference Feeling Alert/Drowsy Emax, B vs E [1]: 11.2
- Mean Difference Feeling High Emax, B vs E [1]: 18.8
- Mean Difference Good Effects Emax, B vs E [1]: 17.4
- Mean Difference Overall Drug Liking Emax, B vs E [1]: 3.3
- Mean Difference Take Drug Again Emax, B vs E [1]: 1.7
- Mean Difference Any Effects Emax, B vs E ([1]; listed as SDX chloride): statistically higher
- Mean Difference Bad Effects Emax, B vs E ([1]; listed as SDX chloride): statistically higher
- Mean Difference Feeling Alert/Drowsy Emax, B vs E ([1]; listed as SDX chloride): statistically higher
- Mean Difference Feeling High Emax, B vs E ([1]; listed as SDX chloride): statistically higher
- Mean Difference Good Effects Emax, B vs E ([1]; listed as SDX chloride): statistically higher
- Mean Difference Overall Drug Liking Emax, B vs E ([1]; listed as SDX chloride): not statistically different
- Mean Difference Take Drug Again Emax, B vs E ([1]; listed as SDX chloride): not statistically different
- Mean Difference Drug Liking Emax, B vs E ([1]; margin 11): 8.3
- Mean Difference Drug Liking Emax, B vs E ([1]; margin 11, listed as SDX chloride): not statistically non-inferior
- Mean Difference Any Effects Emax, D vs A [1, 6]: statistically lower
- Mean Difference Bad Effects Emax, D vs A [1, 6]: statistically lower
- Mean Difference Feeling Alert/Drowsy Emax, D vs A [1, 6]: statistically lower
- Mean Difference Feeling High Emax, D vs A [1, 6]: statistically lower
- Mean Difference Good Effects Emax, D vs A [1, 6]: statistically lower
- Mean Difference Overall Drug Liking Emax, D vs A [1, 6]: about 14.9
- Mean Difference Take Drug Again Emax, D vs A [1, 6]: statistically lower
- Mean Difference Overall Drug Liking Emax, D vs A ([1]; phentermine HCl 60 mg vs SDX Cl 120 mg, listed as SDX chloride): statistically lower
- Mean Difference Drug Liking Emax, D vs A ([1]; phentermine HCl 60 mg vs SDX Cl 120 mg, margin 10): at least 15.5
- Mean Difference Drug Liking Emax, D vs A ([1]; phentermine HCl 60 mg vs SDX Cl 120 mg, margin 10, listed as SDX chloride): statistically significantly lower
- Mean Difference Any Effects Emax, D vs B [1, 7]: statistically lower
- Mean Difference Bad Effects Emax, D vs B [1, 7]: statistically similar
- Mean Difference Feeling Alert/Drowsy Emax, D vs B [1, 7]: statistically lower
- Mean Difference Feeling High Emax, D vs B [1, 7]: statistically lower
- Mean Difference Good Effects Emax, D vs B [1, 7]: statistically lower
- Mean Difference Overall Drug Liking Emax, D vs B [1, 7]: about 15.3
- Mean Difference Take Drug Again Emax, D vs B [1, 7]: 15.4
- Mean Difference Overall Drug Liking Emax, D vs B [1, 8]: statistically lower
- Mean Difference Take Drug Again Emax, D vs B [1, 8]: statistically lower
- Mean Difference Drug Liking Emax, D vs B ([1]; phentermine HCl 60 mg vs SDX Cl 240 mg, margin 10): at least 14.0
- Mean Difference Drug Liking Emax, D vs B ([1]; phentermine HCl 60 mg vs SDX Cl 240 mg, margin 10, listed as SDX chloride): not statistically greater than 10 points
- AUCinf [2]: 31.0
- AUCinf, GLSM [2]: 28.9 ng·h/mL
- AUCinf, GLSM Ratio A/B [2]: 12.2%
- AUClast [2]: 25.7
- AUClast, GLSM [2]: 23.8 ng·h/mL
- AUClast, GLSM Ratio A/B [2]: 10.2%
- Cmax [2]: 12.9 ng/mL
- Cmax, GLSM [2]: 12.1 ng/mL
- Cmax, GLSM Ratio A/B [2]: 20.8%
- T1/2 [2]: 8.23 h
- Tmax [2]: 5.93 min
